Measurements: ChEMBL document CHEMBL3885861, “Open TG-GATES”

Species: Rattus norvegicus
Experiment: Open TG-GATES - Regimen: Daily Repeat
Assay type: toxicity, organism-based, Sprague-Dawley
Design: regimen Daily Repeat, gender Male, age 6 weeks
Conditions: in vivo, po, route gavage; for APTT / Bas / Eos / Fbg / Hb / Ht / Lym / MCH / MCHC / MCV / Mono / Neu / PT / Plat / RBC / Ret / WBC: tissue Blood; for KIDNEY_L / KIDNEY_R / KIDNEY_TOTAL: tissue Kidney; for LIVER: tissue Liver; for A/G / ALP / ALT / AST / BUN / CRE / Ca / Cl / DBIL / GLC / IP / K / LDH / Na / PL / RALB / TBIL / TC / TG / TP / gamma-GTP: tissue Plasma
[1] = 0 mg/kg, 72 h, dose level Control, time 3 day
[2] = 0 mg/kg, […], dose level Control, time 7 day
[3] = 0 mg/kg, […], dose level Control, time 14 day
[4] = 0 mg/kg, […], dose level Control, time 28 day
[5] = 100 mg/kg, 72 h, dose level Low, time 3 day
[6] = 100 mg/kg, […], dose level Low, time 7 day
[7] = 100 mg/kg, […], dose level Low, time 14 day
[8] = 100 mg/kg, […], dose level Low, time 28 day

CN/C(=N/CCSCc1nc[nH]c1C)NC#N [CIMETIDINE]
TERMINAL_BW [1]: 226.2 g
APTT [1]: 20.3 s
Bas [1]: 0.4%
Eos [1]: 0.6%
Fbg [1]: 220.2 mg/dL
Hb [1]: 13.5 g/dL
Ht [1]: 40.5%
Lym [1]: 84.6%
MCH [1]: 21 pg
MCHC [1]: 33.4%
MCV [1]: 63.1 fL
Mono [1]: 2.2%
Neu [1]: 11.2%
PT [1]: 12.7 s
Plat [1]: 132.2 x10_4/uL
RBC [1]: 642.2 x10_4/ul
Ret [1]: 6.3%
WBC [1]: 102.1 x10_2/uL
KIDNEY_L [1]: 1 g
KIDNEY_R [1]: 1 g
KIDNEY_TOTAL [1]: 2 g
LIVER [1]: 10.7 g
A/G [1]: 1.7
ALP [1]: 1069.6 IU/L
ALT [1]: 36.6 IU/L
AST [1]: 71 IU/L
BUN [1]: 14.4 mg/dL
CRE [1]: 0.4 mg/dL
Ca [1]: 10.7 mg/dL
Cl [1]: 102.8 meq/L
DBIL [1]: 0.1 mg/dL
GLC [1]: 198.2 mg/dL
IP [1]: 7.1 mg/dL
K [1]: 3.7 meq/L
LDH [1]: 150 IU/L
Na [1]: 141.2 meq/L
PL [1]: 158 mg/dL
RALB [1]: 3.5 g/dL
TBIL [1]: 0.2 mg/dL
TC [1]: 75.8 mg/dL
TG [1]: 103 mg/dL
TP [1]: 5.7 g/dL
gamma-GTP [1]: 1 IU/L
TERMINAL_BW [2]: 261.3 g
TERMINAL_BW [3]: 315.1 g
TERMINAL_BW [4]: 384.7 g
APTT [2]: 18.7 s
Bas [2]: 0.2%
Eos [2]: 0.6%
Fbg [2]: 228 mg/dL
Hb [2]: 14 g/dL
Ht [2]: 41.6%
Lym [2]: 80%
MCH [2]: 21.5 pg
MCHC [2]: 33.5%
MCV [2]: 64.2 fL
Mono [2]: 2.2%
Neu [2]: 15%
PT [2]: 12.1 s
Plat [2]: 129.9 x10_4/uL
RBC [2]: 649 x10_4/ul
Ret [2]: 5.8%
WBC [2]: 117.4 x10_2/uL
APTT [3]: 18.6 s
Bas [3]: 0%
Eos [3]: 0.8%
Fbg [3]: 218.6 mg/dL
Hb [3]: 14.3 g/dL
Ht [3]: 43.5%
Lym [3]: 79.2%
MCH [3]: 20 pg
MCHC [3]: 33%
MCV [3]: 60.7 fL
Mono [3]: 2.8%
Neu [3]: 16.8%
PT [3]: 12.1 s
Plat [3]: 129.1 x10_4/uL
RBC [3]: 717.8 x10_4/ul
Ret [3]: 4.6%
WBC [3]: 120.6 x10_2/uL
APTT [4]: 20.4 s
Bas [4]: 0%
Eos [4]: 1.2%
Fbg [4]: 205.8 mg/dL
Hb [4]: 15.1 g/dL
Ht [4]: 44.2%
Lym [4]: 79.2%
MCH [4]: 19.2 pg
MCHC [4]: 34.1%
MCV [4]: 56.4 fL
Mono [4]: 2.2%
Neu [4]: 16.6%
PT [4]: 12.9 s
Plat [4]: 99.1 x10_4/uL
RBC [4]: 784 x10_4/ul
Ret [4]: 2.6%
WBC [4]: 121.2 x10_2/uL
KIDNEY_L [2]: 1.1 g
KIDNEY_R [2]: 1.1 g
KIDNEY_TOTAL [2]: 2.1 g
KIDNEY_L [3]: 1.3 g
KIDNEY_R [3]: 1.2 g
KIDNEY_TOTAL [3]: 2.5 g
KIDNEY_L [4]: 1.5 g
KIDNEY_R [4]: 1.5 g
KIDNEY_TOTAL [4]: 2.9 g
LIVER [2]: 12.5 g
LIVER [3]: 14.1 g
LIVER [4]: 15.5 g
A/G [2]: 1.5
ALP [2]: 1067.6 IU/L
ALT [2]: 33.2 IU/L
AST [2]: 62.4 IU/L
BUN [2]: 16.6 mg/dL
CRE [2]: 0.4 mg/dL
Ca [2]: 10.7 mg/dL
Cl [2]: 103.2 meq/L
DBIL [2]: 0.1 mg/dL
GLC [2]: 236.6 mg/dL
IP [2]: 8 mg/dL
K [2]: 3.9 meq/L
LDH [2]: 165.2 IU/L
Na [2]: 141.2 meq/L
PL [2]: 156.4 mg/dL
RALB [2]: 3.4 g/dL
TBIL [2]: 0.2 mg/dL
TC [2]: 73.6 mg/dL
TG [2]: 138.8 mg/dL
TP [2]: 5.7 g/dL
gamma-GTP [2]: 1 IU/L
A/G [3]: 1.4
ALP [3]: 861.4 IU/L
ALT [3]: 41.4 IU/L
AST [3]: 72.8 IU/L
BUN [3]: 17 mg/dL
CRE [3]: 0.4 mg/dL
Ca [3]: 10.6 mg/dL
Cl [3]: 102.6 meq/L
DBIL [3]: 0.1 mg/dL
GLC [3]: 215.2 mg/dL
IP [3]: 7.4 mg/dL
K [3]: 4.1 meq/L
LDH [3]: 169.6 IU/L
Na [3]: 141.4 meq/L
PL [3]: 155.6 mg/dL
RALB [3]: 3.4 g/dL
TBIL [3]: 0.2 mg/dL
TC [3]: 70.8 mg/dL
TG [3]: 168.4 mg/dL
TP [3]: 5.9 g/dL
gamma-GTP [3]: 1 IU/L
A/G [4]: 1.2
ALP [4]: 772.6 IU/L
ALT [4]: 31 IU/L
AST [4]: 59.6 IU/L
BUN [4]: 16.2 mg/dL
CRE [4]: 0.5 mg/dL
Ca [4]: 10.1 mg/dL
Cl [4]: 102.4 meq/L
DBIL [4]: 0.1 mg/dL
GLC [4]: 235.6 mg/dL
IP [4]: 6.6 mg/dL
K [4]: 3.6 meq/L
LDH [4]: 151.6 IU/L
Na [4]: 140.6 meq/L
PL [4]: 137.4 mg/dL
RALB [4]: 3.3 g/dL
TBIL [4]: 0.2 mg/dL
TC [4]: 61.8 mg/dL
TG [4]: 119.8 mg/dL
TP [4]: 6 g/dL
gamma-GTP [4]: 1 IU/L
TERMINAL_BW [5]: 228.3 g
APTT [5]: 18 s
Bas [5]: 0.2%
Eos [5]: 1%
Fbg [5]: 220 mg/dL
Hb [5]: 12.8 g/dL
Ht [5]: 38.6%
Lym [5]: 77.6%
MCH [5]: 21.1 pg
MCHC [5]: 33.2%
MCV [5]: 63.6 fL
Mono [5]: 2.6%
Neu [5]: 17.4%
PT [5]: 12.6 s
Plat [5]: 127.7 x10_4/uL
RBC [5]: 607 x10_4/ul
Ret [5]: 6.9%
WBC [5]: 97.9 x10_2/uL
KIDNEY_L [5]: 1 g
KIDNEY_R [5]: 1 g
KIDNEY_TOTAL [5]: 2 g
LIVER [5]: 10.7 g
A/G [5]: 1.5
ALP [5]: 1125.6 IU/L
ALT [5]: 37 IU/L
AST [5]: 66.4 IU/L
BUN [5]: 14.8 mg/dL
CRE [5]: 0.4 mg/dL
Ca [5]: 10.9 mg/dL
Cl [5]: 103.2 meq/L
DBIL [5]: 0.1 mg/dL
GLC [5]: 195.6 mg/dL
IP [5]: 7.1 mg/dL
K [5]: 4.2 meq/L
LDH [5]: 137.8 IU/L
Na [5]: 140.8 meq/L
PL [5]: 155.8 mg/dL
RALB [5]: 3.4 g/dL
TBIL [5]: 0.2 mg/dL
TC [5]: 78.6 mg/dL
TG [5]: 109.8 mg/dL
TP [5]: 5.6 g/dL
gamma-GTP [5]: 1.2 IU/L
TERMINAL_BW [6]: 260 g
TERMINAL_BW [7]: 308.9 g
TERMINAL_BW [8]: 402.8 g
APTT [6]: 18.3 s
Bas [6]: 0.2%
Eos [6]: 0.8%
Fbg [6]: 227.6 mg/dL
Hb [6]: 13.5 g/dL
Ht [6]: 40.3%
Lym [6]: 81.6%
MCH [6]: 20.8 pg
MCHC [6]: 33.4%
MCV [6]: 62.2 fL
Mono [6]: 2%
Neu [6]: 14.6%
PT [6]: 12.2 s
Plat [6]: 126 x10_4/uL
RBC [6]: 648.2 x10_4/ul
Ret [6]: 5.4%
WBC [6]: 111.1 x10_2/uL
APTT [7]: 19.3 s
Bas [7]: 0%
Eos [7]: 1%
Fbg [7]: 219.2 mg/dL
Hb [7]: 14.4 g/dL
Ht [7]: 43.9%
Lym [7]: 83.8%
MCH [7]: 19.5 pg
MCHC [7]: 32.8%
MCV [7]: 59.5 fL
Mono [7]: 2.2%
Neu [7]: 13%
PT [7]: 12.7 s
Plat [7]: 120.2 x10_4/uL
RBC [7]: 737.8 x10_4/ul
Ret [7]: 3.9%
WBC [7]: 93.7 x10_2/uL
APTT [8]: 19.7 s
Bas [8]: 0.2%
Eos [8]: 1.2%
Fbg [8]: 217.4 mg/dL
Hb [8]: 14.6 g/dL
Ht [8]: 42.3%
Lym [8]: 79.4%
MCH [8]: 19.2 pg
MCHC [8]: 34.5%
MCV [8]: 55.8 fL
Mono [8]: 2.8%
Neu [8]: 15.6%
PT [8]: 12.9 s
Plat [8]: 114 x10_4/uL
RBC [8]: 758.2 x10_4/ul
Ret [8]: 2.8%
WBC [8]: 137.9 x10_2/uL
KIDNEY_L [6]: 1.1 g
KIDNEY_R [6]: 1.1 g
KIDNEY_TOTAL [6]: 2.2 g
KIDNEY_L [7]: 1.2 g
KIDNEY_R [7]: 1.3 g
KIDNEY_TOTAL [7]: 2.5 g
KIDNEY_L [8]: 1.4 g
KIDNEY_R [8]: 1.4 g
KIDNEY_TOTAL [8]: 2.8 g
LIVER [6]: 13 g
LIVER [7]: 13.9 g
LIVER [8]: 17.6 g
A/G [6]: 1.5
ALP [6]: 831 IU/L
ALT [6]: 34.8 IU/L
AST [6]: 64.2 IU/L
BUN [6]: 16.6 mg/dL
CRE [6]: 0.4 mg/dL
Ca [6]: 10.7 mg/dL
Cl [6]: 102 meq/L
DBIL [6]: 0.096 mg/dL
GLC [6]: 252.8 mg/dL
IP [6]: 7.8 mg/dL
K [6]: 4 meq/L
LDH [6]: 155 IU/L
Na [6]: 139.6 meq/L
PL [6]: 161 mg/dL
RALB [6]: 3.3 g/dL
TBIL [6]: 0.1 mg/dL
TC [6]: 78.8 mg/dL
TG [6]: 121 mg/dL
TP [6]: 5.6 g/dL
gamma-GTP [6]: 1.2 IU/L
A/G [7]: 1.4
ALP [7]: 969.6 IU/L
ALT [7]: 42 IU/L
AST [7]: 74.8 IU/L
BUN [7]: 17.6 mg/dL
CRE [7]: 0.4 mg/dL
Ca [7]: 10.5 mg/dL
Cl [7]: 102 meq/L
DBIL [7]: 0.1 mg/dL
GLC [7]: 205.2 mg/dL
IP [7]: 7.1 mg/dL
K [7]: 4 meq/L
LDH [7]: 210.8 IU/L
Na [7]: 141.4 meq/L
PL [7]: 142.2 mg/dL
RALB [7]: 3.4 g/dL
TBIL [7]: 0.2 mg/dL
TC [7]: 62.8 mg/dL
TG [7]: 137.8 mg/dL
TP [7]: 5.9 g/dL
gamma-GTP [7]: 0.8 IU/L
A/G [8]: 1.4
ALP [8]: 672 IU/L
ALT [8]: 35.4 IU/L
AST [8]: 66.4 IU/L
BUN [8]: 18.6 mg/dL
CRE [8]: 0.6 mg/dL
Ca [8]: 10.3 mg/dL
Cl [8]: 101.6 meq/L
DBIL [8]: 0.1 mg/dL
GLC [8]: 264.2 mg/dL
IP [8]: 6.9 mg/dL
K [8]: 3.5 meq/L
LDH [8]: 186 IU/L
Na [8]: 140.4 meq/L
PL [8]: 150.8 mg/dL
RALB [8]: 3.5 g/dL
TBIL [8]: 0.2 mg/dL
TC [8]: 70.2 mg/dL
TG [8]: 167.4 mg/dL
TP [8]: 6 g/dL
gamma-GTP [8]: 1.2 IU/L
